System: iNOS
Experiment: iNOS promoter luciferase reporter assay in hepatocytes
Assay type: cell-based
Settings: CO 250 ppm
Method: In some experiments, gene transfer of an IκBα superrepressor (Hellerbrand et al., Hepatology 27:1285-1295 (1998)) or β-galactosidase using adenoviral vectors (10 pfu/cell) was performed 12 hours prior to TNF-α/ActD treatment. NF-κB activation was evaluated using a luciferase reporter assay as described in Chow et al. (J. Biol. Chem. 274: 10689-10692 (1999)). Briefly, hepatocytes were co-transfected with NF-κB reporter constructs (pGL3-kappaβ luciferase, 100 ng/well; and pIEP-Lac-z 0.5 μg/well) using Lipofectin™ (Invitrogen, Carlsbad, Calif.) as instructed by the manufacturer. Evaluation of iNOS expression was performed using a luciferase reporter assay as described in Lowenstein et al. (Proc. Natl. Acad. Sci. U.S.A 90: 9730-9734 (1993)). Briefly, hepatocytes were co-transfected with iNOS promoter reporter constructs (pXP2; 1 μg/well) and pIEP-LacZ (0.5 μg/well) as described above.
Hepatocytes were transfected with plasmids as described above and treated with various stimuli 24 hours after transfection. Luciferase activity (reported as arbitrary units; A.U.) was assayed 6 hours after initiation of treatment, using a luciferase assay kit (Promega, Madison, Wis.) and a Berthold Luminometer. Results were corrected for transfection efficiency and protein concentration. […]

SMILES: [C-]#[O+] [CO, carbon monoxide]
- iNOS luciferase reporter activity: highly significant increase in activity
